Test results from US9981962B2, “Pyrazole derivatives as NIK inhibitors” (Janssen Pharmaceutica NV, priority 2014, dated 2018).

Legend:
[1] = biological target: T1, Recombinant Human NF-kappaB-Inducing Kinase (NIK/MAP3K14) (Homo sapiens, UniProt Q99558); test: Biological Assay A: inhibition of recombinant human NIK/MAP3K14 activity (MSD, MBP substrate); conditions: 10 nM NIK, 25 μM ATP, 1 h at 25° C.; averaged over all measurements on all batches; read-out: Biochemical (MSD IC50)
Protocol: Inhibition of Recombinant Human NF-kappaB-Inducing Kinase (NIK/MAP3K14) Activity Assay buffer was 50 mM Tris pH 7.5 containing 1 mM EGTA (ethylene glycol tetraacetic acid), 1 mM DTT (dithiothreitol), 0.1 mM Na3VO4, 5 mM MgCl2, 0.01% Tween® 20. Assays were carried out in 384 well Mesoscale high binding plates which had been coated with myelin basic protein (MBP) and blocked with bovine serum albumin to prevent non-specific protein binding. All compounds tested were dissolved in dimethyl sulfoxide (DMSO) and further dilutions were made in assay buffer. Final DMSO concentration was 1% (v/v) in assays. Incubations consisted of compound (1% DMSO in control and blank wells), 25 μM Adenosine-5′-triphosphate (ATP), and 10 nM NIK/MAP3K14 substituting enzyme with buffer in the blank wells. Incubations were carried out for 1 h at 25° C. and were followed by washing and sequential incubation with rabbit anti-phospho-MBP and anti-rabbit Ig Sulfotag antibody before reading bound Sulfotag on a Mesoscale Discovery. Signal obtained in the wells containing blank samples was subtracted from all other wells and ICso's were determined by fitting a sigmoidal curve to % inhibition of control versus Log10 compound concentration.

[2] = biological target: T1, Recombinant Human NF-kappaB-Inducing Kinase (NIK/MAP3K14); test: Biological Assay A2: inhibition of auto-phosphorylation of recombinant human NIK/MAP3K14 (AlphaScreen); assay type: biochemical; conditions: 0.2 nM GST-tagged NIK, 25 microM ATP, 1 h at 25° C., averaged values
Protocol: Inhibition of Auto-Phosphorylation of Recombinant Human NF-kappaB-Inducing Kinase (NIK/MAP3K14) Activity (AlphaScreen®)
NIK/MAP3K14 auto-phosphorylation activity was measured using the AlphaScreen® (αscreen) format (Perkin Elmer). All compounds tested were dissolved in dimethyl sulfoxide (DMSO) and further dilutions were made in assay buffer. Final DMSO concentration was 1% (v/v) in assays. Assay buffer was 50 mM Tris pH 7.5 containing 1 mM EGTA (ethylene glycol tetraacetic acid), 1 mM DTT (dithiothreitol), 0.1 mM Na3VO4, 5 mM MgCl2, 0.01% Tween® 20. Assays were carried out in 384 well Alphaplates (Perkin Elmer). Incubations consisted of compound, 25 microM Adenosine-5′-triphosphate (ATP), and 0.2 nM NIK/MAP3K14. Incubations were initiated by addition of GST-tagged NIK/MAP3K14 enzyme, carried out for 1 h at 25° C. and terminated by addition of stop buffer containing anti-phospho-IKK Ser176/180 antibody. Protein A Acceptor and Glutathione-Donor beads were added before reading using an EnVision® Multilabel Plate Reader (Perkin Elmer). Signal obtained in the wells containing blank samples was subtracted from all other wells and IC50's were determined by fitting a sigmoidal curve to % inhibition of control versus Log10 compound concentration.

[3] = system: P-IKKα levels in L363 cells; test: Biological Assay B: effect of compounds on P-IKKα levels in L363 cells; assay type: cell-based; conditions: Homo sapiens, L-363, BAFF stimulated, 2 hr treatment, averaged values, read-out: IKKα Cellular IC50
Protocol: Effect of Compounds on P-IKKα Levels in L363 Cells
All compounds tested were dissolved in DMSO and further dilutions were made in culture medium. Final DMSO concentration was 1% (v/v) in cell assays. The human L363 cells (ATCC) were cultured in RPMI 1640 medium supplemented with GlutaMax and 10% fetal calf serum (PAA). Cells were routinely maintained at densities of 0.2×10^6 cells per ml—1×10^6 cells per ml at 37° C. in a humidified 5% CO2 atmosphere. Cells were passaged twice a week splitting back to obtain the low density. Cells were seeded in 96 well plates (Nunc 167008) at 2×10^6 per ml media in a volume of 75 μl per well plus 25 μl 1 μg/ml recombinant human B-cell activating factor (BAFF/BLyS/TNFSF13B). Seeded cells were incubated at 37° C. in a humidified 5% CO2 atmosphere for 24 hr. Drugs and/or solvents were added (20 μl) to a final volume of 120 μl. Following 2 hr treatment plates were removed from the incubator and cell lysis was achieved by the addition of 30 μl 5× lysis buffer followed by shaking on a plate shaker at 4° C. for 10 min. At the end of this incubation lysed cells were centrifuged at 800×g for 20 min at 4° C. and the lysate was assessed for P-IKKα levels by sandwich immuno-assay carried out in anti-rabbit antibody coated Mesoscale plates. Within an experiment, the results for each treatment were the mean of 2 replicate wells. For initial screening purposes, compounds were tested using an 8 point dilution curve (serial 1:3 dilutions). For each experiment, controls (containing MG132 and BAFF but no test drug) and a blank incubation (containing MG132 and BAFF and 10 μM ADS125117, a test concentration known to give full inhibition) were run in parallel. The blank incubation value was subtracted from all control and sample values. To determine the IC50 a sigmoidal curve was fitted to the plot of % inhibition of control P-IKKα levels versus Log10 compound concentration.

JJN-3 cells = test: Biological Assay C: antiproliferative activity on JJN-3 cells (CellTiter-Glo); assay type: cell-based, human; conditions: Homo sapiens, JJN-3, 72 h, 72 hr treatment, averaged values
Protocol: (§1) Determination of Antiproliferative Activity on LP-1, L-363 and JJN-3 Cells
(§2) All compounds tested were dissolved in DMSO and further dilutions were made in culture medium. Final DMSO concentration was 0.3% (v/v) in cell proliferation assays. Viability was assessed using CellTiter-Glo cell viability assay kit (Promega). The human LP-1, L-363 and JJN-3 cells (DSMZ) were cultured in RPMI 1640 medium supplemented with 2 mM L-glutamine, and 10% fetal calf serum (PAA). Cells were routinely kept as suspension cells at 37° C. in a humidified 5% CO2 atmosphere. Cells were passaged at a seeding density of 0.2×10^6/ml twice a week. Cells were seeded in black tissue culture treated 96-well plates (Perkin Elmer). Densities used for plating ranged from 2,000 to 6,000 cells per well in a total volume of 75 μl medium. After twenty four hours, drugs and/or solvents were added (25 μl) to a final volume of 100 μl. Following 72 hr of treatment plates were removed from the incubator and allowed to equilibrate to room temperature for approx 10 min. 100 ut CellTiter-Glo reagent was added to each well that was then covered (Perkin Elmer Topseal) and shaken on plate shaker for 10 min. Luminescence was measured on a HTS Topcount (Perkin Elmer). Within an experiment, the results for each treatment were the mean of 2 replicate wells. For initial screening purposes, compounds were tested using a 9 point dilution curve (serial 1:3 dilutions). For each experiment, controls (containing no drug) and a blank incubation (containing cells read at the time of compound addition) were run in parallel. The blank value was subtracted from all control and sample values. For each sample, the mean value for cell growth (in relative light units) was expressed as a percentage of the mean value for cell growth of the control.

L-363 cells = test: Biological Assay C: antiproliferative activity on L-363 cells (CellTiter-Glo); assay type: cell-based, human; conditions: Homo sapiens, L-363, 72 h, 72 hr treatment, averaged values
Protocol: as §1, §2

LP-1 cells = test: Biological Assay C: antiproliferative activity on LP-1 cells (CellTiter-Glo); assay type: cell-based, human; conditions: Homo sapiens, LP-1, 72 h, 72 hr treatment, averaged values
Protocol: as §1, §2

T1 sequence (Q99558 whole entry): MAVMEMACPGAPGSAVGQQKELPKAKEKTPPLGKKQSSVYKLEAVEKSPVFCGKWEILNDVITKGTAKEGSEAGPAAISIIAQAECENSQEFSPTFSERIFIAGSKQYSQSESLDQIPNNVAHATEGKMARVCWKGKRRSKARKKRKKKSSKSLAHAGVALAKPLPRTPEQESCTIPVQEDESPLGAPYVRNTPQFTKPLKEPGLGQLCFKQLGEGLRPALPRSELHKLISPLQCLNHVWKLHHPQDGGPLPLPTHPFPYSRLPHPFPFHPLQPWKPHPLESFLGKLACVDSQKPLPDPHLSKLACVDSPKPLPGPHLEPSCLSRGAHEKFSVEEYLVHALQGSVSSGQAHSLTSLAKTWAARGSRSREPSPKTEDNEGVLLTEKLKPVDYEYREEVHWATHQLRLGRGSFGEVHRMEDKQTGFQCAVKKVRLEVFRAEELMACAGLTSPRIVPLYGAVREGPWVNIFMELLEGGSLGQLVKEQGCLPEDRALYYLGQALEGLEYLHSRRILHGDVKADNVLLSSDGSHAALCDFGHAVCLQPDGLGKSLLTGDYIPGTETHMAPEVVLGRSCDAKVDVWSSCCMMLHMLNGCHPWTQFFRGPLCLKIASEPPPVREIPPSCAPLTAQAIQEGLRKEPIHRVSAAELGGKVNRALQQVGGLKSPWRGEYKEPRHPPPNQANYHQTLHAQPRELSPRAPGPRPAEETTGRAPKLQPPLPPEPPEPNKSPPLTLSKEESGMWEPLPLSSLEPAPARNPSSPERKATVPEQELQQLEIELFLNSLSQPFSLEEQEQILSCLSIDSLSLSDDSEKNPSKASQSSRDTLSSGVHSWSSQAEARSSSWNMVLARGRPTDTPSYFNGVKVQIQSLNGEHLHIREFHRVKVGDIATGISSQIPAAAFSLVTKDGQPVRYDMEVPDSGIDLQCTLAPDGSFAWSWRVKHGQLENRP

Row | Compound | IC50 [1] [nM] | IC50 [2] [nM] | IC50 [3] [nM] | EC50 (JJN-3 cells) [nM] | EC50 (L-363 cells) [nM] | EC50 (LP-1 cells) [nM]
1 | CC(C)(O)C#Cc1ccc2c(c1)c(-c1cn[nH]c1)cn2CC1COC1 [Compound 6] | 6 | 66 | 73 | 1080 | 704 | 1950
2 | CC(C)(O)C#Cc1ccc2c(c1)c(-c1cn[nH]c1)cn2CC1CCOC1 (stereo not drawn) [Compound 5] | 38 | 25 | 145 | 1410 | 1830 | 1890
3 | COCCn1cc(-c2cn[nH]c2)c2cc(C#CC(C)(C)O)ccc21 [Compound 7] | 11 | 73 | 175 | 1410 | 1180 | 2180
4 | CCn1cc(-c2c[nH]nc2C)c2cc(C#CC(C)(C)O)ccc21 [Compound 3] | 71 | 35 | 139 | 1860 | 3120 | 3160
5 | CC(C)(O)C#Cc1ccc2c(c1)c(-c1cn[nH]c1)cn2CCO [Compound 11] | 16 | 65 | 83 | 394 | 340 | 483
6 | OC1(C#Cc2ccc3[nH]cc(-c4cn[nH]c4)c3c2)CCCC1 [Compound 14] | 30 | 28 | 300 | 2200 | 4050 | 5440
7 | CC(O)(C#Cc1ccc2[nH]cc(-c3cn[nH]c3)c2c1)c1nccs1 (stereo not drawn) [Compound 13] | 9 | 7 | 16 | 704 | 5520 | 9910
8 | CCn1cc(-c2cn[nH]c2)c2cc(C#CC(C)(C)O)ccc21 [Compound 9] | 8 | 43 | 54 | 418 | 332 | 298
9 | CC(C)(O)C#Cc1ccc2c(c1)c(-c1cn[nH]c1)cn2CC(C)(C)O [Compound 10] | 38 | 110 | 111 | 723 | 759 | 947
10 | Cn1cc(-c2cn[nH]c2)c2cc(C#CC(C)(C)O)ccc21 [Compound 12] | 41 | 65 | 38 | 754 | 700 | 769
11 | CC(C)(O)C#Cc1ccc2[nH]cc(-c3cn[nH]c3)c2c1 [Compound 1] | 28 | 22 | 122 | 432 | 245 | 320
